Measurements published in patent US4791215A, “Derivatives of glutamic acid and aspartic acid” (priority 1984, dated 1988).

Tests used:
morphine analgesia = assay: Increase in analgesia of morphine, Tail Flick Test (Experiment 1); assay type: in vivo, rats; conditions: for percentage variation of latency of pain sensation / M (10-90) ± SE, mean percentage variation of latency: compound 10 mg/kg i.p. + morphine 2 mg/kg; for M (10-90) ± SE, mean percentage variation of latency: mean 10-90 min; for Power ratio with respect to morphine alone: rat, in vivo
Description: Experiment No: 1 Increase in analgesia of analgesic-narcotic drugs in rats by the Tail Flick Test
The method is that described by Harris et al. (J. Pharmacol. Exp. Ther. 143 (1964) 141-148).
Male rats are used having a weight of about 150-200 g which have not fasted. A point on the tail is chosen and irradiated by a heat source (75° C.) and the time (in seconds) for which the animal remains without moving its tail is measured.
A maximum period of time of 8 seconds under the heat source is chosen, after which the animal is, in any case, removed to avoid tissue damage. The measurement is effected before (controls) and after treatment with the drugs.
The percentage variation is calculated for each individual animal by the following formula: [formula] The measurements were carried out 10, 20, 30, 45, 60 and 90 minutes after treatment with the analgesics.

[1] = test system: CCK-8 induced contraction of guinea pig gall bladder; assay: Anti-CCK activity on gall bladder strips in vitro; conditions: CCK-8 10 ng/ml
Description: ANTI-CCK ACTIVITY ON GUINEA PIG GALL BALDDERS IN VITRO
A longitudinal strip of guinea pig gall bladder was placed in a bath of isolated members in the presence of Krebs at a temperature of 32° C. with continuous oxygenation with an oxygen-CO2 mixture (95-5V/V).
The isometric contractions were detected by means of a force transducer and recorded.
The gall bladder was made to contract with the use of a 10 ng/ml concentration of CCK-8; the antagonistic activity of the compounds of the invention on the contracting effect of the CCK was determined with the use of different concentrations and the ED 50 value, that is the concentration in μg/ml of a compound which could antagonise 50% of the contracting effect of the CCK, was determined.

Row | Structure (SMILES) | percentage variation of latency of pain sensation (morphine analgesia; 10') | percentage variation of latency of pain sensation (morphine analgesia; 20') | percentage variation of latency of pain sensation (morphine analgesia; 30') | percentage variation of latency of pain sensation (morphine analgesia; 45') | percentage variation of latency of pain sensation (morphine analgesia; 60') | percentage variation of latency of pain sensation (morphine analgesia; 90') | M (10-90) ± SE, mean percentage variation of latency (morphine analgesia) | Power ratio with respect to morphine alone (morphine analgesia) | ED50 (concentration antagonising 50% of contracting effect of CCK-8) [1]
1 | CCCN(CCC)C(=O)C(CCC(=O)O)NC(=O)c1cc(I)c(I)c(I)c1 (stereo not drawn) [Compound C-19] | 3.6 ± 12.0% | 42.8 ± 19.0% | 58.4 ± 21.0% | 66.1% | 57.1 ± 18.0% | 35.6 ± 20.0% | 43.9 ± 22.7% | 1.47 | > 200 µg/mL
2 | CCCCNC(=O)C(CCC(=O)O)NC(=O)c1cccc(C#N)c1 (stereo not drawn) [Compound C-21] | 48.6 ± 19.0% | 37.4 ± 12.0% | 54.8 ± 19.0% | 44.6 ± 15.0% | 64.0 ± 18.0% | 54.9 ± 10.0% | 50.7% | 1.70 | > 200 µg/mL
3 | CCCN(CCC)C(=O)C(CC(=O)O)NC(=O)c1cccc(C#N)c1 (stereo not drawn) [Compound C-22] | 82.7 ± 9.4% | 67.6 ± 18.0% | 88.4 ± 9.3% | 83.3% | 93.6 ± 6.4% | 53.8 ± 14.9% | 78.2 ± 15.0% | 2.62 | > 200 µg/mL
4 | N#Cc1cccc(C(=O)NC(CC(=O)O)C(=O)NC2CCCCC2)c1 (stereo not drawn) [Compound C-23] | 33.1 ± 19.0% | 49.9 ± 15.0% | 58.2 ± 17.0% | 68.3 ± 20.0% | 72.0% | 58.7 ± 22.0% | 56.7 ± 14.0% | 1.90 | > 200 µg/mL
5 | CCCCN(CCCC)C(=O)C(CCC(=O)O)NC(=O)c1cccc(C#N)c1 (stereo not drawn) [Compound C-24] | 80.3 ± 13.6% | 87.2% | 96.9 ± 3.0% | 100.0 ± 0.0% | 74.0 ± 16.0% | 75.3 ± 14.0% | 85.6 ± 11.0% | 2.87 | > 200 µg/mL
6 | CCCCN(CCCC)C(=O)C(CCC(=O)O)NC(=O)c1ccc(Br)cc1 (stereo not drawn) [Compound C-25] | 59.7 ± 15.0% | 49.0 ± 13.0% | 71.5% | 61.9 ± 22.0% | 49.0 ± 22.0% | 20.4 ± 6.0% | 51.9 ± 18.0% | 1.74 | 30.3 µg/mL
7 | O=C(O)CCC(NC(=O)c1ccc(Cl)c(Cl)c1)C(=O)N1CCCCC1 (stereo not drawn) [Compound C-26] | 50.1 ± 17.0% | 80.3 ± 20.0% | 84.7 ± 11.0% | 71.8 ± 15.0% | 32.2% | 4.9 ± 6.0% | 54.0 ± 31.1% | 1.81 | 146.5 µg/mL
8 | CCCN(CCC)C(=O)C(CCC(=O)O)NC(=O)c1ccc(C)cc1 (stereo not drawn) [Compound C-29] | 48.7 ± 20% | 75.5% | 73.6 ± 11% | 70.0 ± 19% | 47.3 ± 23% | 6.0 ± 14% | 53.5% | 1.80 | 262 µg/mL
